Reference: patent publication US20240181022A1, “AMURINS LYSINS, AND LYSIN-ANTIMICROBIAL PEPTIDE (AMP) CONSTRUCTS ACTIVE AGAINST GRAM-NEGATIVE BACTERIA” (priority 2021, published 2024)

Test system: P. aeruginosa
Experiment: Checkerboard synergy assay (FICI) with antibiotics against P. aeruginosa
Format: cell-based, Pseudomonas aeruginosa
Settings: for MIC (dual agent): GN370 + meropenem
In short: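 Checkerboard of 2-fold antibiotic dilutions crossed with GN370 (lysin peptide), bacteria at 1×10^5 CFU/ml in CAA, with or without human serum or pulmonary surfactant. ΣFICmin taken as FICI: ≤0.5 synergy, >0.5–≤1 additive, >1 indifferent.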

[1] = P. aeruginosa (ATCC 27853, CFS 1766)

Compound `C[C@@H](O)[C@H]1C(=O)N2C(C(=O)O)=C(S[C@@H]3CN[C@H](C(=O)N(C)C)C3)[C@H](C)[C@H]12` [meropenem, reference compound] has an MIC (alone) [1] of 8 µg/mL, an MIC (dual agent) [1] of 0.25 µg/mL and an MIC (alone) (P. aeruginosa (CFS 2045)) of 32 µg/mL. For the same compound, the MIC (dual agent) (P. aeruginosa (CFS 2045)) was 4 µg/mL, the MIC (alone) (P. aeruginosa (CFS 2061)) was 64 µg/mL and the MIC (dual agent) (P. aeruginosa (CFS 2061)) was 4 µg/mL. The “FICI of the antibiotic with GN370” value (P. aeruginosa ATCC 27853, checkerboard) was 0.375, the Antibiotic MIC (single agent) (P. aeruginosa strain AR-769) was 64 µg/mL and the “Antibiotic FIC” value (P. aeruginosa strain AR-769, in combination with GN370) was 0.125. For the same compound, the “Antibiotic MIC (combo)” value (P. aeruginosa strain AR-769, in combination with GN370, in µg/mL) was 8.
